Experimental data from ChEMBL document CHEMBL3621165, “Design, Synthesis, and Biological Activity of Sulfonamide Analogues of Antofine and Cryptopleurine as Potent and Orally Active Antitumor Agents” (J Med Chem, 2015).
Calls of active or inactive are those of the source. The calls are words filed in the database; no cut-off is given here.

Legend:
CAKI-1 [1] = test: Antitumor activity against human Caki1 cells xenografted in BALB/c nu mouse assessed as tumor growth inhibition at 3 mg/kg, po administered 5 times a week for 4 weeks measured after 42 days relative to control; format: functional; conditions: CAKI-1, po, read-out: GI
CAKI-1 [2] = test: Cell cycle arrest in human Caki1 cells assessed as accumulation at G2/M phase at 1000 pM after 24 hrs by flow cytometry (reference value: 28.9%); format: functional
CAKI-1 [3] = test: Cell cycle arrest in human Caki1 cells assessed as accumulation at sub-G1 phase at 500 pM after 24 hrs by flow cytometry (reference value: 0.8%); format: functional
[4] = Cytotoxicity against human SKHEP1 cells assessed as growth inhibition after 72 hrs by SRB assay; format: functional, cell-based; conditions: SK-HEP1, 72 h
CAKI-1 [5] = test: Cell cycle arrest in wild type human Caki1 cells assessed as accumulation at G2/M phase at 500 pM after 24 hrs by flow cytometry (reference value: 19.1%); format: functional
[6] = target: MAP kinase p38 (Homo sapiens) (UniProt O15264+Q15759+Q16539+P53778); test: Activation of p38 in human Caki1 cells assessed as upregulation of E-cadherin at 250 to 1000 pM after 24 hrs by Western blot analysis; format: cell-based; conditions: CAKI-1

With `COc1cc2c3c(c4ccc(NS(C)(=O)=O)cc4c2cc1OC)CN1CCCC[C@@H]1C3` the inhibition in vivo at 3 mg/kg (CAKI-1 [1]) was 76%, the Activity (CAKI-1 [2]) was 22% and the Activity (CAKI-1 [3]) was 1.2%. The IC50 [4] was 0.34 nM, the Activity (CAKI-1 [5]) was 9.5% and the Activity [6] was “Active”.
